Reference: patent publication US8642053B2, “Potentiated topical composition” (priority 2001, dated 2014)

Columns and labels:
[1] = In vitro water binding capacity, stratum corneum pieces, 6 hrs at 85% relative humidity; settings: for Water binding capacity after 6 hrs: aqueous 10% by weight solution; for Uptake of water after 6 hrs / Uptake of water after 6 hrs %: pre-incubated with 10% (by weight) solution, relative humidity 85%, room temperature
[2] = In vitro water binding capacity, stratum corneum pieces, 24 hours at 85% relative humidity; design: species or system human; settings: after 24 hours, mean, pentane-1,5-diol 20%, urea 10%, control water content subtracted
Description: Pieces of stratum corneum from the sole of 7 healthy volunteers were used. […] The specimens were removed after 24 hours for weighing. […] The water binding capacity was estimated by subtracting the WC for stratum corneum incubated with distilled water for 24 hours from the WC for the stratum corneum pieces incubated with the test substances for 24 hours. […] While the latter composition does give rise to itching when applied to eczematous skin, this negative effect is not encountered with the composition according to the invention.

[3] = tested on: eye (conjunctiva) of albino rabbits; test: Eye irritation test; type: in vivo, rabbit; settings: 1-10 scale
From the text: (§1) Only very mild irritation (score 2 on a 1-10 scale) was observed.

[4] = tested on: shaved skin of albino rabbits; test: Skin irritation test; type: in vivo, rabbit; settings: scale 1 (no irritation) to 10 (maximum irritation); 24 hours exposure
From the text: as §1

[5] = aqueous solution containing 20% of pentane-1,5-diol

| Water binding capacity after 6 hrs [1] | Uptake of water after 6 hrs [1] | Uptake of water after 6 hrs % [1] | Water binding capacity [2] | Water binding capacity ([2]; listed as Urea) | Water binding capacity ([2]; listed as Pentane-1,5-diol) | Water binding capacity [1, 5] | Water content [1, 5] | SMILES | Eye irritation score [3] | Skin irritation score [4] |
| --- | --- | --- | --- | --- | --- | --- | --- | --- | --- | --- |
| 17 % by weight | 0.0109 mg | 28% | 16% | 16% |  |  |  | NC(N)=O [urea] |  |  |
| 9 % by weight | 0.0075 mg | 20% | 23% |  | 23% | 13 % by weight | 24% | OCCCCCO [pentane-1,5-diol] | 2 | 1 |

| SMILES | Water binding capacity after 6 hrs [1] | Uptake of water after 6 hrs [1] | Uptake of water after 6 hrs % [1] | Water binding capacity [2] | Water binding capacity ([2]; listed as Urea) | Water binding capacity ([2]; listed as Pentane-1,5-diol) | Water binding capacity [1, 5] | Water content [1, 5] | Eye irritation score [3] | Skin irritation score [4] |
| --- | --- | --- | --- | --- | --- | --- | --- | --- | --- | --- |
| CC(O)CO (centres unmarked) [propane-1,2-diol] | 7 % by weight | 0.0032 mg | 18% |  |  |  |  |  |  |  |
